Results reported in patent US20230066286A1, “DEUTERATED TRYPTAMINE DERIVATIVES AND METHODS OF USE” (priority 2020, published 2023).

Legend:
rat liver microsomes = experiment: Metabolic stability in rat liver microsomes (RLM); conditions: for RLM (metabolized or not): last time point 120 min; for RLM, % (half-life as % vs. the related nondeuterated compound): values in square brackets are within 10% difference (assay's accuracy), no deuteration effect
hrMAO-A = biological target: T1, hrMAO-A (Homo sapiens, UniProt P21397); experiment: Metabolic stability in the presence of hrMAO-A; assay type: in vitro ADME; conditions: for MAO, % (half-life as % vs. the related nondeuterated compound) / MAO (metabolized or not): MAO-A assay; for MAO, % (half-life as % vs. the related nondeuterated compound): values in square brackets are within 10% difference (assay's accuracy), no deuteration effect; for MAO (metabolized or not): last time point 120 min
T1 construct: purchased XenoTech Lot# 8213001
T1 sequence (P21397 1-527): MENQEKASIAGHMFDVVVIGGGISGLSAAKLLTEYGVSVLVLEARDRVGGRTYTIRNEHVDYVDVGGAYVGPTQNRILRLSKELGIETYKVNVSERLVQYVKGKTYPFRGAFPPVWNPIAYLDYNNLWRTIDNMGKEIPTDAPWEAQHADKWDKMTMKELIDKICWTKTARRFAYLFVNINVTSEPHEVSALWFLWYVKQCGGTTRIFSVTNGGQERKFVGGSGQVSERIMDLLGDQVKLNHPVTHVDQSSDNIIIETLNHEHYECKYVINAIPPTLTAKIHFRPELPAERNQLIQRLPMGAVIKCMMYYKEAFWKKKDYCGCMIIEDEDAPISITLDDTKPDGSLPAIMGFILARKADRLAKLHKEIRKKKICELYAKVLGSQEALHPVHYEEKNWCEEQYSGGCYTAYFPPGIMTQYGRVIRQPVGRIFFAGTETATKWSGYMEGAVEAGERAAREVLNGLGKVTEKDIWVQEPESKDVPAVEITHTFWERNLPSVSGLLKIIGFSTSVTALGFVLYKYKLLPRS
Protocol: The reaction mixture was prepared as described below. The co-dosed TAs were added into the reaction mixture at a final concentration of 1 microM each. The positive control, kynuramine (25 microM), was run simultaneously with the TAs in a separate reaction. The reaction mixture (without TAs or kynuramine) was equilibrated in a shaking water bath at 37° C. for 5 minutes. The reaction was initiated by the addition of the TAs or kynuramine, and the mixture was incubated in a shaking water bath at 37° C. Aliquots (100 microL) of the TA reaction mixture were withdrawn at 0, 5, 10, 20, 30, 60, and 120 minutes. Aliquots (100 microL) of the positive control reaction mixture were withdrawn at 0 and 30 minutes. TA and kynuramine samples were immediately combined with 100 microL of ice-cold 100% MeCN containing 0.1% formic acid and IS to terminate the reaction. The samples were then mixed and centrifuged to precipitate proteins. All TA samples were assayed by LC-HRAMS. The PARR (analyte to IS) at each time point was compared to the PARR at time 0 to determine the percent remaining at each time point. Reaction composition: hrMAO 0.02 mg/mL; Potassium Phosphate, pH 7.4 100 mM; Magnesium Chloride 5 mM; Test Articles (each) 1 microM.

[1] = oral; cited from earlier work
[2] = PK study in rats, cassette dosing; assay type: in vivo, rat; conditions: % change vs. non-deuterated material, 5 mg/kg, oral gavage or via catheter
Protocol: (§1) The key PK parameters (presented as a % change vs. non-deuterated materials) are presented in Table 3 to include half-life (T½), area under the curve (AUC), bioavailability (F) and blood-to-plasma ration (BPR). Pharmacokinetics of the deuterated tryptamines was studied in rats. In a typical experiment, run as a cassette dosing, two groups of 5 Wistar female rats (200-250 g) with surgically inserted jugular vein catheter (Charles River, Andover, MA) were fasted for 12 h and then administered 5 mg/kg of the deuterated and 5 mg/kg of the related non-deuterated analog, by oral gavage or via a catheter for each group. At time points 0, 15, 30, 60 min, and 2, 4, 8, and 24 h, the resulting plasma was analyzed for the parent molecule using LC/MS spectroscopy. Two separate groups of 5 animals were used for determining blood-to-plasma ratio (BPR). Each group was sacrificed at time points 15 and 30 min, respectively, and the concentration of the parent drug was determined in the […] and plasma by LC/MS spectroscopy.

[3] = Blood-to-plasma ratio (BPR), parent drug in brain and plasma of rats; assay type: in vivo, rat; conditions: % change vs. non-deuterated material
Protocol: as §1

SMILES: C=CCN(CC=C)CCc1c[nH]c2ccccc12
- RLM (metabolized or not) (rat liver microsomes; RLM assay): R

SMILES: C=CCNCCc1c[nH]c2ccccc12
- RLM (metabolized or not) (rat liver microsomes; RLM assay): R

SMILES: [2H]C([2H])(Cc1c[nH]c2ccccc12)NC([2H])([2H])C([2H])([2H])[2H]
- MAO, % (half-life as % vs. the related nondeuterated compound) (hrMAO-A): 170%

SMILES: [2H]C([2H])([2H])C([2H])([2H])NC([2H])([2H])C([2H])([2H])c1c[nH]c2cccc(O)c12
- RLM, % (half-life as % vs. the related nondeuterated compound) (rat liver microsomes; RLM assay): [93] %

SMILES: CCN(CC)CCc1c[nH]c2ccccc12
- RLM (metabolized or not) (rat liver microsomes; RLM assay): R

SMILES: [2H]C([2H])(c1c[nH]c2ccc(OC)cc12)C([2H])([2H])N(CC)CC
- RLM, % (half-life as % vs. the related nondeuterated compound) (rat liver microsomes; RLM assay): [95] %

SMILES: CCN(CC)CCc1c[nH]c2ccc(OC)cc12
- RLM (metabolized or not) (rat liver microsomes; RLM assay): R

SMILES: CCN(CC)CCc1c[nH]c2ccc(O)cc12
- RLM (metabolized or not) (rat liver microsomes; RLM assay): R

SMILES: CCN(CC)CCc1c[nH]c2cccc(OC)c12
- RLM (metabolized or not) (rat liver microsomes; RLM assay): R

SMILES: [2H]c1ccc2[nH]c([2H])c(CCN([2H])CC)c2c1O
- RLM (metabolized or not) (rat liver microsomes; RLM assay): R

SMILES: [2H]C([2H])(NCC)C([2H])([2H])c1c[nH]c2ccccc12
- MAO, % (half-life as % vs. the related nondeuterated compound) (hrMAO-A): 140%

SMILES: CCNCCc1c[nH]c2ccccc12
- MAO (metabolized or not) (hrMAO-A): R
- RLM (metabolized or not) (rat liver microsomes; RLM assay): R

SMILES: [2H]C([2H])(NCC)C([2H])([2H])c1c[nH]c2cccc(O)c12
- RLM, % (half-life as % vs. the related nondeuterated compound) (rat liver microsomes; RLM assay): [94] %

SMILES: CCNCCc1c[nH]c2cccc(O)c12
- RLM (metabolized or not) (rat liver microsomes; RLM assay): R

SMILES: CCN(C)CCc1c[nH]c2ccccc12
- MAO (metabolized or not) (hrMAO-A): R
- RLM (metabolized or not) (rat liver microsomes; RLM assay): R

SMILES: CCN(C)CCc1c[nH]c2ccc(OC)cc12
- MAO (metabolized or not) (hrMAO-A): R
- RLM (metabolized or not) (rat liver microsomes; RLM assay): R

SMILES: CCN(C)CCc1c[nH]c2ccc(O)cc12
- MAO (metabolized or not) (hrMAO-A): R
- RLM (metabolized or not) (rat liver microsomes; RLM assay): R

SMILES: CCN(C)CCc1c[nH]c2cccc(OC)c12
- MAO (metabolized or not) (hrMAO-A): R
- RLM (metabolized or not) (rat liver microsomes; RLM assay): R

SMILES: COc1ccc2[nH]cc(CCN(C)C)c2c1
- MAO (metabolized or not) (hrMAO-A): R
- RLM (metabolized or not) (rat liver microsomes; RLM assay): R

SMILES: CN(C)CCc1c[nH]c2ccc(O)cc12
- MAO (metabolized or not) (hrMAO-A): R
- RLM (metabolized or not) (rat liver microsomes; RLM assay): R

SMILES: [2H]C([2H])(c1c[nH]c2cccc(OC)c12)C([2H])([2H])N(C)C
- RLM, % (half-life as % vs. the related nondeuterated compound) (rat liver microsomes; RLM assay): 190%

SMILES: COc1cccc2[nH]cc(CCN(C)C)c12
- MAO (metabolized or not) (hrMAO-A): R
- RLM (metabolized or not) (rat liver microsomes; RLM assay): R

SMILES: CNCCc1c[nH]c2ccccc12
- MAO (metabolized or not) (hrMAO-A): R
- RLM (metabolized or not) (rat liver microsomes; RLM assay): R

SMILES: [2H]C([2H])(NC)C([2H])([2H])c1c[nH]c2cccc(O)c12
- RLM, % (half-life as % vs. the related nondeuterated compound) (rat liver microsomes; RLM assay): 160%

SMILES: CNCCc1c[nH]c2cccc(O)c12
- MAO (metabolized or not) (hrMAO-A): R
- RLM (metabolized or not) (rat liver microsomes; RLM assay): R

SMILES: CC(C)NCCc1c[nH]c2ccccc12
- RLM (metabolized or not) (rat liver microsomes; RLM assay): R

SMILES: CC(C)NCCc1c[nH]c2cccc(O)c12
- RLM (metabolized or not) (rat liver microsomes; RLM assay): R

SMILES: [2H]C([2H])(c1c[nH]c2cccc(O)c12)C([2H])([2H])N(C(C)C)C(C)C
- RLM, % (half-life as % vs. the related nondeuterated compound) (rat liver microsomes; RLM assay): [97] %

SMILES: CC(C)N(CCc1c[nH]c2cccc(O)c12)C(C)C
- RLM (metabolized or not) (rat liver microsomes; RLM assay): R

SMILES: COc1cc(CCNCc2ccccc2OC)c(OC)cc1Cl [2C-C-NBOMe, 2-(4-Chloro-2,5-dimethoxyphenyl)-N-[(2-methoxyphenyl)methyl]ethan-l-amine]
- orally active dose, as low as [1]: 25 µg
- very strong psychedelic doses [1]: 500 to 700 µg

SMILES: [2H]C([2H])(Cc1c[nH]c2ccc(OC)cc12)N(C)C [5-MeO-DMT-α,α-d2]
- AUC, deuterium kinetic isotope effect (% change) [2]: 60%
- T½, deuterium kinetic isotope effect (% change) [2]: 30%
- BPR, 15 min, deuterium kinetic isotope effect (% change) ([3]; rats sacrificed at 15 min): 120%
- BPR, 30 min, deuterium kinetic isotope effect (% change) ([3]; rats sacrificed at 30 min): 180%

SMILES: [2H]C([2H])(Cc1c[nH]c2ccccc12)N(C)C [DMT-d2]
- CLint (hrMAO-A; hrMAO-A, four test articles): 0.126 mL/min/ mg protein
- % Remaining of Initial 0 min (hrMAO-A; hrMAO-A, four test articles): 100%
- % Remaining of Initial 60 min (hrMAO-A; hrMAO-A, four test articles, 60 min): 76.0%
- % Remaining of Initial 0 min (rat liver microsomes; RLM, four test articles): 100%
- % Remaining of Initial 60 min (rat liver microsomes; RLM, four test articles, 60 min): 32.0%

SMILES: [2H]C([2H])(c1c[nH]c2ccccc12)C([2H])([2H])N(C)C [DMT-d4]
- CLint (hrMAO-A; hrMAO-A, four test articles): 0.119 mL/min/ mg protein
- % Remaining of Initial 0 min (hrMAO-A; hrMAO-A, four test articles): 100%
- % Remaining of Initial 0 min (rat liver microsomes; RLM, four test articles): 100%

SMILES: [2H]C([2H])([2H])N(C([2H])([2H])[2H])C([2H])([2H])C([2H])([2H])c1c[nH]c2ccccc12 [DMT-d10]
- stability in the MAO-A enzymatic assay vs. less deuterated DMT analogs (hrMAO-A; MAO-A enzymatic assay): superiority
- % Remaining of Initial 0 min (hrMAO-A; hrMAO-A, d8 and d10 analogs of DMT): 100.0%
- % Remaining of Initial 5 min (hrMAO-A; hrMAO-A, d8 and d10 analogs of DMT, 5 min): 99.0%
- % Remaining of Initial 0 min (hrMAO-A; hrMAO-A, four test articles): 100%
- % Remaining of Initial 0 min (rat liver microsomes; RLM, d8 and d10 analogs of DMT): 100%
- % Remaining of Initial 10 min (rat liver microsomes; RLM, d8 and d10 analogs of DMT, 10 min): 56.0%
- % Remaining of Initial 0 min (rat liver microsomes; RLM, four test articles): 100%
- metabolic stability vs. less deuterated DMT analogs (rat liver microsomes; rat liver microsomes): Further enhancement of metabolic stability

SMILES: [2H]c1[nH]c2c([2H])c([2H])c([2H])c([2H])c2c1C([2H])([2H])C([2H])([2H])N(C([2H])([2H])[2H])C([2H])([2H])[2H] [DMT-dis]
- half-life compared to DMT-d10 (rat liver microsomes; RLM assay, additional deuteration in the phenyl ring): no improvement in half-life

SMILES: CN(C)CCc1c[nH]c2ccccc12 [DMT]
- CLint (hrMAO-A; hrMAO-A, four test articles): 0.638 mL/min/ mg protein
- % Remaining of Initial 0 min (hrMAO-A; hrMAO-A, four test articles): 100%
- % Remaining of Initial 0 min (rat liver microsomes; RLM, four test articles): 100%
- % Remaining of Initial 20 min (rat liver microsomes; RLM, four test articles, 20 min): 41.0%
